Experimental data as given in US8198084B2, “Serum-free mammalian cell culture medium, and uses thereof” (Life Technologies Corporation, priority 1996, dated 2012).

Tests used:
[1] = test system: 293 human embryonic kidney cells; experiment: Suspension culture of 293 cells: cell density and viability; format: cell-based; conditions: lower-protein media, transferrin replaced by iron chelate; FIG. 2
Description: Adenovirus type 5-transformed 293 human embryonic kidney epithelial cells were obtained from ATCC(CRL 1573), and were cultured as described in Example 4 by incubation at 37° C. in a humidified atmosphere consisting of 8% CO2/92% air.
Cultures of 293 cells in serum-supplemented media were weaned from serum by passage 2-3 times in OptiMEM medium (Life Technologies, Inc.; Rockville, Md.) supplemented with 2% normal horse serum in 165 cm^2 culture flasks. After the second or third passage, when cells reached 50-75% confluence, they were dislodged from the growth surfaces by gently rapping the flasks several times; trypsin or other proteolytic agents were not used, since such agents often cause irreversible damage to cells cultivated in low-serum or serum-free media. Cells were resuspended in the present culture media and triturated until aggregates dispersed into a single cell suspension, and cell concentration and viability was determined by trypan blue exclusion counting on a hemacytometer according to routine procedures.
Cells were then seeded into the present culture medium in Erlenmeyer flasks at a density of about 2.5−3.0×10^5 cells/ml. […] Cell densities and viabilities were determined at least every other day, and cells were subcultured when the density approached about 7.5−10.0×10^5 cells/ml by diluting cultures with fresh culture medium to a density of about 2.5−3.0×10^5 cells/ml. […]

rβ-gal CHO cells [2] = experiment: Growth (cell density) of rβ-gal CHO cells in suspension culture; format: cell-based, Chinese hamster; conditions: for cell growth and viability versus CD CHO control: Example 14, 25 μg/mL in CD CHO medium, FIG. 13
Description: To establish a recombinant β-galactosidase (rβ-Gal) CHO cell line, CHO cells deficient in dihydrofolate reductase (DHFR^−) were obtained from ATCC(CRL-9096, Rockville, Md.) and transfected with two plasmids: pSV2dhfr (ATCC 37146), containing a gene for methotrexate (MTX) resistance, and pCMVβgal, which contains the lacZ cDNA. The transfection was conducted using LipofectAMINE™ Reagent, and selection was accomplished with 1.2 μM methotrexate (Sigma Chemical Co., St Louis, Mo.). Stock cultures were maintained in CHO-S-SFM II or CHO III Prototype supplemented with 0.3 μM MTX.
Unless indicated otherwise below, CHO cell culture conditions were as follows for the following Examples. 25-35 mL of CHO cells were cultured in 125 mL shake flasks in humidified air containing 5-10% carbon dioxide. The shake flasks were shaken on an orbital shaking platform at 125-135 rpm. Temperature was maintained at 37° C. Cells were subcultured every three to four days to a density of 2−3×10^5 cells/mL.

rβ-gal CHO cells [3] = experiment: rβ-Gal assay (ONPG) in lysates of rβ-gal CHO cells; format: cell-based, Chinese hamster; conditions: for level of rβ-gal expression versus CD CHO control: Example 14, 25 μg/mL in CD CHO medium, FIG. 14
Description: rβ-Galactosidase (rβ-gal or rβeta-Gal) was measured in cell lysates using a modification of the method described by Hall et al., J. Mol. Appl. Gen. 2:101-109 (1983) and Miller, Experiments in Molecular Genetics, Cold Spring Harbor Laboratory (1972). Briefly, a 2.0 ml sample of cell suspension was collected from each sample and subjected to two freeze-thaw cycles, centrifuged at 100× g for 4 minutes, and the supernatant was saved for rβ-Galactosidase quantitation. 100 μl of each supernatant sample was added to 1.0 ml Z buffer (0.06 M Na2HPO4, 0.04M NaH2PO4, 0.01M KCl, 0.01M MgSO4-7H2O, 0.05M β-mercaptoethanol, pH 7.0), followed by 200 μl of o-nitrophenyl-p-D-galactoside (ONPG, 4.0 mg/ml in dH20) and incubated at 37° C. for 120 minutes. The reaction was halted by addition of 500 μl stop buffer (1M Na2CO3) and absorbance at 420 nm was read against a blank of the appropriate medium. Activity was calculated using the following formulae:
[formula] Units rβ-galactosidase/# of cells=Activity/cell 2.

Compound	support of 293 cell growth compared with complete media [1]	cell growth and viability versus CD CHO control (rβ-gal CHO cells [2])	level of rβ-gal expression versus CD CHO control (rβ-gal CHO cells [3])	other results
FeSO4-EDTA	performed equivalently to complete media	–	–	–
FeCl3-sodium citrate	performed equivalently to complete media	–	–	–
dextran sulfate [dextran sulfate (m.w. 500,000)]	–	increased cell growth and viability at days 5 and 7, but not at day 9	did not display enhanced expression	–
CN(Cc1cnc2nc(N)nc(N)c2n1)c1ccc(C(=O)N[C@@H](CCC(=O)O)C(=O)O)cc1 [MTX, methotrexate, reference compound]	–	–	–	relation of concentration to cell density (rβ-gal CHO cells [2]; Example 9, CD CHO medium with increasing concentrations, FIG. 7A): inversely proportional; relation of concentration to rβ-galactosidase specific activity (rβ-gal CHO cells [3]; Example 9, CD CHO medium with increasing concentrations, FIG. 7B): proportional
dextran sulfate [dextran sulfate (m.w. 5,000)]	–	increased cell growth and viability at days 5, 7, and 9	an increase in the level of rβ-gal expression at days 5, 7, and 9	–
